Earlier results in patent US20060073200A1, “Lercanidipine capsules” (Recordati Ireland Limited, priority 2004, published 2006).
Where two headings read alike, the source gives them in different places.

Key:
[1] = not given; remark: listed apart in the source
[2] = molecular target: cytochrome P450 IIIA4 isoenzyme (Homo sapiens, UniProt P08684); conditions: extensive presystemic first pass elimination
Sequence of cytochrome P450 IIIA4 isoenzyme (P08684 whole entry): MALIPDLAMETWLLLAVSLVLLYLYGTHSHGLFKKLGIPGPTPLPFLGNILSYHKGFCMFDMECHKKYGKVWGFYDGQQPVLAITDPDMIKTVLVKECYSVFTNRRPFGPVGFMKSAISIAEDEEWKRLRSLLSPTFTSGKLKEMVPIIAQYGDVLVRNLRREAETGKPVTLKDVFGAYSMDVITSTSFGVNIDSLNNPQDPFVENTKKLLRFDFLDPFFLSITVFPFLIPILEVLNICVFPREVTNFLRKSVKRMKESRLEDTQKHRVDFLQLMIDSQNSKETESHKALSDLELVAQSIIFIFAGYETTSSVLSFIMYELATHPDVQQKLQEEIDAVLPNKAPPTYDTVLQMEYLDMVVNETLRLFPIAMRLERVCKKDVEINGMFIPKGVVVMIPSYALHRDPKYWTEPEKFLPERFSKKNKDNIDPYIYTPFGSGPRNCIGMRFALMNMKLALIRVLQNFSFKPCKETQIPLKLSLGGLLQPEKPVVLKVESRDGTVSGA

COC(=O)C1=C(C)NC(C)=C(C(=O)OC(C)(C)CN(C)CCC(c2ccccc2)c2ccccc2)C1c1cccc([N+](=O)[O-])c1 (centres unmarked) [Lercanidipine, methyl 1,1,N-trimethyl-N-(3,3-diphenylpropyl)-2-aminoethyl 1,4-dihydro-2,6-dimethyl-4-(3-nitrophenyl)pyridine-3,5-dicarboxylate]
solubility (acidic media, at pH 5): less than 20 μg/ml
solubility (pH greater than 5): less than 5 μg/ml
aqueous solubility (water, lercanidipine and its salts): about 5 μg/ml
increase in amount of lercanidipine absorbed with simultaneous intake of food ([1]; food (especially high fat content) compared to administration without food): three to four fold
plasma level of lercanidipine ([1]; immediate release dosage forms, by 24 h): below 1 ng/ml
peak plasma level (Tmax) ([1]; oral administration of an immediate release form): 1 to 3 h
substrate for cytochrome P450 IIIA4 isoenzyme [2]: substrate
Paap (Caco-2 cell apparatus): 0.05 ×10⁻⁶ cm/s
